Source: patent US20230265151A1, “GIP/GLP1 CO-AGONIST COMPOUNDS” (priority 2020, published 2023)
Read-outs that look alike come from different tables or passages of the source.

Key:
Format in all cases: cell-based
hGCGR = molecular target: T1, hGCGR (Homo sapiens, UniProt P47871); assay: Functional cAMP formation (HTRF) in HEK-293 clonal cells expressing hGCGR, 0.1% bovine casein, without or with 1.0% human serum albumin; conditions: geometric mean
T1 construct: expressed in transfected cells
In short: (§1)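 Cells were stimulated with peptide for 30 min at 37° C, then lysed in buffer carrying cAMP-d2 and anti-cAMP Eu3+-cryptate for a competitive HTRF read after at least 60 min at room temperature. The 665/620 nm ratio was converted to nM cAMP against a standard curve.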

hGLP-1R = hGLP-1R (Homo sapiens, UniProt P43220); assay: Functional cAMP formation (HTRF) in HEK-293 clonal cells expressing hGLP-1R, 0.1% bovine casein, without or with 1.0% human serum albumin; set-up: expressed in transfected cells; conditions: for EC50: geometric mean; for Emax: percent of maximal response to GLP-1(7-36)NH2
In short: as §1

hGIPR = molecular target: T2, hGIPR (Homo sapiens, UniProt P48546); assay: Functional cAMP formation (HTRF) in HEK-293 clonal cells expressing hGIPR, 0.1% bovine casein, without or with 1.0% human serum albumin; conditions: for EC50: geometric mean
T2 construct: expressed in transfected cells
T2 sequence (P48546 22-466): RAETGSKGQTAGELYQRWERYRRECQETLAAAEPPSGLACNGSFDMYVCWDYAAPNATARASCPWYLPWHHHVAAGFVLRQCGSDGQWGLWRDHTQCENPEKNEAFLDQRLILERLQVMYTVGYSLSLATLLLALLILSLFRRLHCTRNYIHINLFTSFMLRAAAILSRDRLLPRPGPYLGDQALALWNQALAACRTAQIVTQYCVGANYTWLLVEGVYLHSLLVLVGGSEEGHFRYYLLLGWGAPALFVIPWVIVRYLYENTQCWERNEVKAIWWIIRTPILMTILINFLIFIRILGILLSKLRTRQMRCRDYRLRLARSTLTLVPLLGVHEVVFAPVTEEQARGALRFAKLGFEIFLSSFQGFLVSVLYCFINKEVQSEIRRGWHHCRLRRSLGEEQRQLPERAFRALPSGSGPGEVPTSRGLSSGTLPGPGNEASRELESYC
In short: as §1

[1] = hGCGR EC50, nM (SEM, n), 0.1% bovine casein and 1.0% human serum albumin, 37° C.
[2] = hGCGR EC50, nM (SEM, n), cAMP, 37° C., 0.1% bovine casein (no human serum albumin)
[3] = HEK293, read-out: hGLP-1R Emax, % ± SEM, 0.1% bovine casein and 1.0% human serum albumin, 37° C.
[4] = HEK293, read-out: hGIPR Emax, % ± SEM, 0.1% bovine casein and 1.0% human serum albumin, 37° C., percent of maximal response to GIP(1-42)NH2
[5] = hGIPR EC50, nM (SEM, n), cAMP, 37° C., 0.1% bovine casein (no human serum albumin)

T1 sequence (P47871 26-477): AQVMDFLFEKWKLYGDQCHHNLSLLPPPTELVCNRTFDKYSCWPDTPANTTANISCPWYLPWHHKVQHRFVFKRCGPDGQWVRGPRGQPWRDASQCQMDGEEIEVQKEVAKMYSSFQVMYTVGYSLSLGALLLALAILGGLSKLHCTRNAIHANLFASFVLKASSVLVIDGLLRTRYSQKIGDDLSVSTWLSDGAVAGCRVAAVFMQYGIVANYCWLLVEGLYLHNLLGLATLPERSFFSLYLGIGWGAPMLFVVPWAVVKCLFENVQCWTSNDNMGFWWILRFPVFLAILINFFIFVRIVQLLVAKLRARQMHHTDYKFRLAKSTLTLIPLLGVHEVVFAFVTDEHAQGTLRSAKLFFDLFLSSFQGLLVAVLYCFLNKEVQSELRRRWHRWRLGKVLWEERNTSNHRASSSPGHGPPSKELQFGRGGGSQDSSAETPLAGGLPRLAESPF
Chain of hGLP-1R (P43220 24-463): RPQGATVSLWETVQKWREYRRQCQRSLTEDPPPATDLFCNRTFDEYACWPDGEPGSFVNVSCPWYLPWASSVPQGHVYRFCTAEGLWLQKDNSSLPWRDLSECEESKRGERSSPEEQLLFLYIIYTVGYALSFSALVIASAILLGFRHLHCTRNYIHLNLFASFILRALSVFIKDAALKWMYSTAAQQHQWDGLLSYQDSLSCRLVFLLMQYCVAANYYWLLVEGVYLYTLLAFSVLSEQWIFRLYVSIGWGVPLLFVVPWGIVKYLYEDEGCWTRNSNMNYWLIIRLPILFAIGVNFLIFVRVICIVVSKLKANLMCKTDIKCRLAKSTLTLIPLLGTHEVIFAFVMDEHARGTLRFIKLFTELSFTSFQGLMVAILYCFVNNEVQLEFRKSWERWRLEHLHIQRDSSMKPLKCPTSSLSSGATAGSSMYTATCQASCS

## CC[C@H](C)[C@H](NC(=O)[C@H](CCCN)NC(=O)[C@H](CC(=O)O)NC(=O)[C@H](CC(C)C)NC(=O)[C@](C)(CC(C)C)NC(=O)[C@@H](NC(=O)[C@H](CO)NC(=O)[C@H](Cc1ccncc1)NC(=O)[C@H](CC(=O)O)NC(=O)[C@H](CO)NC(=O)[C@@H](NC(=O)[C@](C)(Cc1ccccc1F)NC(=O)[C@@H](NC(=O)CNC(=O)[C@H](CCC(=O)O)NC(=O)C(C)(C)NC(=O)[C@@H](N)Cc1ccc(O)cc1)[C@@H](C)O)[C@@H](C)O)[C@@H](C)CC)C(=O)N[C@@H](C)C(=O)N[C@@H](CCC(N)=O)C(=O)NC(C)(C)C(=O)N[C@@H](CCCCNC(=O)COCCOCCNC(=O)COCCOCCNC(=O)CC[C@H](NC(=O)CCCc1ccc(C(C)(C)C)cc1)C(=O)O)C(=O)N[C@@H](Cc1ccccc1)C(=O)N[C@H](C(=O)N[C@H](CCC(=O)O)C(=O)N[C@@](C)(Cc1ccc(O)cc1)C(=O)N[C@@H](CC(C)C)C(=O)N[C@H](C(=O)N[C@@H](CCC(=O)O)C(=O)NCC(=O)NCC(=O)N1CCC[C@H]1C(=O)N[C@@H](CO)C(=O)N[C@@H](CO)C(=O)NCC(=O)N[C@@H](C)C(=O)N1CCC[C@H]1C(=O)N1CCC[C@H]1C(=O)N1CCC[C@H]1C(=O)N[C@@H](CO)C(=O)N[C@@H](CCCCNC(=O)COCCOCCNC(=O)COCCOCCNC(=O)CC[C@H](NC(=O)CCCc1ccc(C(C)(C)C)cc1)C(=O)O)C(N)=O)[C@@H](C)CC)[C@@H](C)CC [Example 205]
hGCGR; 0.1% bovine casein and 1.0% human serum albumin, 37° C., read-out: hGCGR EC50, nM (SEM, n)
  EC50: > 9950 nM
hGCGR; cAMP, incubated at 37° C., 0.1% bovine casein (no human serum albumin), read-out: hGCGR EC50, nM (SEM, n)
  EC50: > 9950 nM
hGLP-1R; 0.1% bovine casein and 1.0% human serum albumin, 37° C., read-out: hGLP-1R EC50, nM (SEM, n)
  EC50: 2.18 nM
hGIPR; 0.1% bovine casein and 1.0% human serum albumin, 37° C., read-out: hGIPR EC50, nM (SEM, n)
  EC50: 0.261 nM
hGIPR; HEK293, 0.1% bovine casein and 1.0% human serum albumin, 37° C., percent of maximal response to GIP(1-42)NH2, read-out: hGIPR Emax, % ± SEM
  Emax: 72.1%
hGIPR; cAMP, incubated at 37° C., 0.1% bovine casein (no human serum albumin), read-out: hGIPR EC50, nM (SEM, n)
  EC50: 0.0264 nM

## CC[C@H](C)[C@H](NC(=O)[C@H](CCCN)NC(=O)[C@H](CC(=O)O)NC(=O)[C@H](CC(C)C)NC(=O)[C@](C)(CC(C)C)NC(=O)[C@@H](NC(=O)[C@H](CO)NC(=O)[C@H](Cc1ccncc1)NC(=O)[C@H](CC(=O)O)NC(=O)[C@H](CO)NC(=O)[C@@H](NC(=O)[C@](C)(Cc1ccccc1F)NC(=O)[C@@H](NC(=O)CNC(=O)[C@H](CCC(=O)O)NC(=O)C(C)(C)NC(=O)[C@@H](N)Cc1ccc(O)cc1)[C@@H](C)O)[C@@H](C)O)[C@@H](C)CC)C(=O)N[C@@H](C)C(=O)N[C@@H](CCC(N)=O)C(=O)NC(C)(C)C(=O)N[C@@H](CCC(=O)O)C(=O)N[C@@H](Cc1ccccc1)C(=O)N[C@H](C(=O)N[C@@H](CCCCNC(=O)COCCOCCNC(=O)COCCOCCNC(=O)CC[C@H](NC(=O)CCCCCCCCCOc1ccc(C(=O)O)cc1)C(=O)O)C(=O)N[C@@](C)(Cc1ccc(O)cc1)C(=O)N[C@@H](CC(C)C)C(=O)N[C@H](C(=O)N[C@@H](CCCCNC(=O)COCCOCCNC(=O)COCCOCCNC(=O)CC[C@H](NC(=O)CCCCCCCCCOc1ccc(C(=O)O)cc1)C(=O)O)C(=O)NCC(=O)NCC(=O)N1CCC[C@H]1C(=O)N[C@@H](CO)C(=O)N[C@@H](CO)C(=O)NCC(=O)N[C@@H](C)C(=O)N1CCC[C@H]1C(=O)N1CCC[C@H]1C(=O)N1CCC[C@H]1C(=O)N[C@@H](CO)C(N)=O)[C@@H](C)CC)[C@@H](C)CC [Example 274]
hGCGR; [1]
  EC50: > 9950 nM
hGCGR; [2]
  EC50: > 9950 nM
hGLP-1R; [3]
  Emax: 121%
hGLP-1R; HEK293, read-out: hGLP-1R Emax, % ± SEM, cAMP, 37° C., 0.1% bovine casein, arithmetic mean
  Emax: 114%
hGLP-1R; hGLP-1R EC50, nM (SEM, n), cAMP, 37° C., 0.1% bovine casein (no human serum albumin)
  EC50: 0.406 nM
hGIPR; [4]
  Emax: 93.5%
hGIPR; [5]
  EC50: 0.0226 nM

## CC[C@H](C)[C@H](NC(=O)[C@H](CC(C)C)NC(=O)[C@](C)(Cc1ccccc1)NC(=O)[C@H](CCCCNC(=O)COCCOCCNC(=O)COCCOCCNC(=O)CC[C@H](NC(=O)CCCCCCCCCCCCC(=O)O)C(=O)O)NC(=O)[C@@H](NC(=O)[C@](C)(Cc1ccccc1)NC(=O)[C@H](CCC(=O)O)NC(=O)C(C)(C)NC(=O)[C@H](CCC(N)=O)NC(=O)[C@H](C)NC(=O)[C@H](CCCCNC(=O)COCCOCCNC(=O)COCCOCCNC(=O)CC[C@H](NC(=O)CCCCCCCCCCCCC(=O)O)C(=O)O)NC(=O)[C@H](CCCN)NC(=O)[C@H](CC(=O)O)NC(=O)[C@H](CC(C)C)NC(=O)[C@](C)(CC(C)C)NC(=O)[C@@H](NC(=O)C(C)(C)NC(=O)[C@H](Cc1ccncc1)NC(=O)[C@H](CC(=O)O)NC(=O)[C@H](CO)NC(=O)[C@@H](NC(=O)[C@](C)(Cc1ccccc1F)NC(=O)[C@@H](NC(=O)CNC(=O)[C@H](CCC(=O)O)NC(=O)C(C)(C)NC(=O)[C@@H](N)Cc1ccc(O)cc1)[C@@H](C)O)[C@@H](C)O)[C@@H](C)CC)[C@@H](C)CC)C(=O)N[C@@H](CCC(=O)O)C(=O)NCC(=O)NCC(=O)N1CCC[C@H]1C(=O)N[C@@H](CO)C(=O)N[C@@H](CO)C(=O)NCC(=O)N[C@@H](C)C(=O)N1CCC[C@H]1C(=O)N1CCC[C@H]1C(=O)N1CCC[C@H]1C(=O)N[C@@H](CO)C(N)=O [Example 121]
hGCGR; hGCGR EC50, nM (SEM, n), cAMP, incubated at 37° C., 0.1% bovine casein (no human serum albumin)
  EC50: > 9950 nM
hGLP-1R; hGLP-1R EC50, nM (SEM, n), cAMP, incubated at 37° C., 0.1% bovine casein (no human serum albumin)
  EC50: 8.95 nM
hGIPR; HEK293, read-out: hGIPR Emax, % ± SEM, percent of maximal response to GIP(1-42)NH2, 37° C., 0.1% bovine casein, arithmetic mean
  Emax: 92.8%
hGIPR; hGIPR EC50, nM (SEM, n), cAMP, incubated at 37° C., 0.1% bovine casein (no human serum albumin)
  EC50: 0.0271 nM

## CC[C@H](C)[C@H](NC(=O)[C@H](CC(C)C)NC(=O)[C@](C)(Cc1ccc(O)cc1)NC(=O)[C@@H](CCC(=O)O)NC(=O)[C@@H](NC(=O)[C@H](Cc1ccccc1)NC(=O)[C@H](CCC(=O)O)NC(=O)C(C)(C)NC(=O)[C@H](CCC(N)=O)NC(=O)[C@H](C)NC(=O)[C@H](CCCCNC(=O)COCCOCCNC(=O)COCCOCCNC(=O)CC[C@H](NC(=O)CCCCCCCCCOc1ccc(C(=O)O)cc1)C(=O)O)NC(=O)[C@H](CCCN)NC(=O)[C@H](CC(=O)O)NC(=O)[C@H](CC(C)C)NC(=O)[C@](C)(CC(C)C)NC(=O)[C@@H](NC(=O)[C@H](CO)NC(=O)[C@H](Cc1ccncc1)NC(=O)[C@H](CC(=O)O)NC(=O)[C@H](CO)NC(=O)[C@@H](NC(=O)[C@](C)(Cc1ccccc1F)NC(=O)[C@@H](NC(=O)CNC(=O)[C@H](CCC(=O)O)NC(=O)C(C)(C)NC(=O)[C@@H](N)Cc1ccc(O)cc1)[C@@H](C)O)[C@@H](C)O)[C@@H](C)CC)[C@@H](C)CC)C(=O)N[C@@H](CCC(=O)O)C(=O)NCC(=O)NCC(=O)N1CCC[C@H]1C(=O)N[C@@H](CO)C(=O)N[C@@H](CO)C(=O)NCC(=O)N[C@@H](C)C(=O)N1CCC[C@H]1C(=O)N1CCC[C@H]1C(=O)N1CCC[C@H]1C(=O)N[C@@H](CO)C(=O)N[C@@H](CCCCNC(=O)COCCOCCNC(=O)COCCOCCNC(=O)CC[C@H](NC(=O)CCCCCCCCCOc1ccc(C(=O)O)cc1)C(=O)O)C(N)=O [Example 273]
hGCGR; [1]
  EC50: > 9950 nM
hGCGR; [2]
  EC50: > 9950 nM
hGLP-1R; [3]
  Emax: 90.5%
hGIPR; [4]
  Emax: 88.4%
hGIPR; [5]
  EC50: 0.0166 nM
